Measurements published in patent publication US5552156A, “Liposomal and micellular stabilization of camptothecin drugs” (Ohio State University, priority 1995, dated 1996).
Entries after “also recorded” stand apart in the source; their conditions may differ.

Experiments:
[1] = Overall association constant by fluorescence anisotropy titration, DMPG liposomes; type: physicochemical; conditions: for overall association constant K, DMPG: DMPG (negatively charged, fluid phase), PBS, 37° C.; for bound drug level, DMPG: DMPG liposomes, 0.29M lipid, estimated
Method: While the spectral changes provide qualitative evidence that the camptothecin drugs bind the liposome membranes, fluorescence anisotropy titration, offers the most sensitive means for quantitatively assessing the extent of the binding. The fluorescence anisotropy titration was performed according to the method of Burke and Tritton, Biochemistry 24: 1768-1776 (1985).
The concentrations of free camptothecin drugs and camptothecin drugs associated with liposomes were determined at various lipid concentrations. All experiments were conducted in glass tubes pretreated with a silating agent, Surfacil, from Pearce Chemical, Rockford, Ill. The titration was conducted at camptothecin drug concentration of 1×10^-6 M in PBS at 37° C. Anisotropy values at each lipid concentration were determined within less than 30 seconds following the addition of the camptothecin drugs to the liposome suspension. The (a) values were determined for fixed drug concentration, typically 2 μM, while the lipid concentration was varied from 0 to 0.29M. By varying the lipid concentration rather than varying the drug concentration, the problem of self-association phenomenon which occurs for camptothecin drugs concentrations in excess of 10 μM is avoided. Also, the well-known phenomenon known as inner filter effect which occurs using fluorescent material at high optical densities is a is avoided.
Adsorption isotherms like those shown in FIGS. 4A and 4B were used to determine overall association constants for the camptothecin drugs. Overall association constants are defined as: […]
where [AB ] represents the concentration of the camptothecin drug bound to the vesicle membrane, [AF ] represents the concentration of free drug, and [L] represents the total lipid concentration in the liposome suspension. This equation is valid when the concentration of free lipid is approximately equal to the concentration of total lipid, that is, the concentration of free lipid is in great excess over the concentration of bound drug. Provided this concentration is satisfied, K may be determined from the inverse of the slope of a double reciprocal plot according to (Burke and Tritton, Biochemistry 24:1776, 1985). In such a plot, 1/bound fraction of the total camptothecin drug is plotted vs. 1/[lipid], with a y-intercept value of 1.
The stabilization of camptothecin drugs was determined using different lipids. Three types of lipids (and thus 3 types of membranes) were examined: fluid-phase and electroneutral L-α-dimyristoylphosphatidylcholine (DMPC); fluid-phase and negatively-charged L-α-dimyristoylphosphatidylglycerol (DMPG), and solid-phase and electroneutral L-α-distearoylphosphatidylcholine (DSPC). While DMPC and DMPG have identical chain length, the charge on their head groups differ. DMPC and DSPC have identical head groups, but DMPC has acyl chains having 14 carbons per chain, which are four carbons shorter than the DSPC, which has 18 carbons per chain. This difference of 4-carbon chain length results in DMPC being fluid-phase at 37° C. while DSPC is solid-phase. The 7 camptothecin drugs listed in Table III were combined with liposomes containing the above lipids.
FIGS. 4A and 4B show the extent of camptothecin drug binding to liposomes as a function of lipid concentration for DMPC and DMPG liposomes. DMPC liposomes were made as in Example 1, at lipid concentrations from 0 to 0.29M, using CMC, 10-hydroxycamptothecin, 10,11-methylenedioxy-camptothecin, topotecan, camptothecin, and camptothecin carboxylate sodium salt, as shown in FIG. 4B. DMPG liposomes were made as in Example 2, at lipid concentrations from 0 to 0.29M, using 9-chloro-10,11-methylenedioxycamptothecin CMC, 10,11-methylenedioxycamptothecin, camptothecin, and topotecan, 9-aminocamptothecin, as shown in FIG. 4A. The lipid concentration […] of the data using double-reciprocal plots gave identical overall association/binding constants of 100M^-1.

[2] = Relative lipophilicity of camptothecin drugs; conditions: among drugs of Table V
[3] = Overall association constant by fluorescence anisotropy titration, DMPC liposomes; type: physicochemical; conditions: 2 mM drug, 0.29M DMPC
[4] = HPLC assay of lactone ring hydrolysis, free in PBS or associated with liposomes or micelles; type: physicochemical
[5] = Excited-state lifetime of camptothecin; type: physicochemical; conditions: for excited state-lifetime: 37° C.
Method: The excited state-lifetime values of camptothecin free in solution was measured in PBS, glycerol, and methanol at 37° C. The lifetime values are 4.7 ns, 3.8 ns, and 3.5 ns, respectively. The average excited state-lifetime value of camptothecin when bound to DMPC liposome membrane is 3.7 ns. The measurements indicate that the excited-state lifetime of camptothecin is relatively insensitive to changes in solvent environment or to changes due to relocation of camptothecin from an aqueous environment to the lipid liposome membrane.
The picosecond fluorescence experiment were carried out with a Piridine I cavity dumped dye laser and frequency doubled light […]. The lifetime and correlation time were measured using frequency domain fluorometer operating up 10 GHz (Laczko et al., Rev. Sci. Instrum. 61: 2331, (1990)). The modulated exited light was obtained from the harmonic content of a laser pulse train with a repetition rate of 3.81 MHz and a pulse width of 5 ps. A mode locked […] Antares laser was used to pump the dye laser. The emission was observed through the cut of the filter […] by microchannel photomultiplier. The cross-correlation detection was done outside the photomultiplier tube, according to Laczko et al., Rev, Sci. Instrum. 61: 2331 (1990).

[6] = system: lung, breast, and malignant melanoma; conditions: background; cited from earlier work

SMILES: CCC1(O)C(=O)OCc2c1cc1n(c2=O)Cc2cc3c(Cl)c4c(cc3nc2-1)OCO4 (stereo not drawn) [9-chloro-10,11-methylenedioxycamptothecin]
- overall association constant K, DMPG [1]: 320 M⁻¹
- bound drug level, DMPG [1]: 99%
- relative lipophilicity [2]: most lipophilic

SMILES: CC[C@@]1(O)C(=O)OCc2c1cc1n(c2=O)Cc2cc3c(CN(C)C)c(O)ccc3nc2-1 [topotecan]
- reduced ability to bind negatively-charged liposome membranes relative to CMC ([1]; DMPG): 6 -fold
- overall association constant K, DMPG [1]: 50 M⁻¹
- binding preference DMPG over DMPC ([1]; DMPG compared to DMPC): preferentially binds negatively charged DMPG liposomes as compared to DMPC liposomes; also recorded: strong binding preference for the negatively-charged lipid DMPG
- bound drug level, DMPG [1]: 93%

SMILES: CC[C@@]1(O)C(=O)OCc2c1cc1n(c2=O)Cc2cc3ccccc3nc2-1 [camptothecin]
- bound drug level, DMPG [1]: 97%
- bound camptothecin level at raised drug concentration [3]: 97%
- t1/2 drug DSPC Lip. ([4]; DSPC liposomes, pH 7.4, 37° C.): ~ 100 min.
- excited state-lifetime ([5]; PBS): 4.7 ns
- average excited state-lifetime ([5]; bound to DMPC liposome membrane): 3.7 ns
- excited state-lifetime ([5]; glycerol): 3.8 ns
- excited state-lifetime ([5]; methanol): 3.5 ns
- effectiveness against other experimental cancer types [6]: effective against other experimental cancer types such as lung, breast, and malignant melanoma

SMILES: CCC1(O)C(=O)OCc2c1cc1n(c2=O)Cc2cc3cc4c(cc3nc2-1)OCO4 (stereo not drawn) [10,11-methylenedioxycamptothecin]
- drug not hydrolysed at about 2.5 hours ([4]; SDS micelles, about 2.5 hours): about 75%
- t1/2, octylphenolpolyoxyethylene micelles ([4]; octylphenolpolyoxyethylene micelles, PBS pH 7.4): 1.5 h

SMILES: CCC1(O)C(=O)OCc2c1cc1n(c2=O)Cc2cc3cc(O)ccc3nc2-1 (stereo not drawn) [10-hydroxycamptothecin]
- overall association constant K, DMPG [1]: 75 M⁻¹
